Read-outs that look alike come from different tables or passages of the source.

What all share (format): in vivo
Experiment [1] deals with Amaranthus retroflexus (AMARE). Briefly: Post-emergence efficacy, Method B. The following applies: 360 h, evaluated after 15 days, read-out: Control of weed species after post-emergence application, AMARE (100=total damage to plant; 0=no damage to plant); for pest or weed control at 1000 g/ha: Application Rate 1000 g/Ha; for pest or weed control at 500 g/ha: Application Rate 500 g/Ha. On the procedure: (§1) An “instant formulation”, known as the IF50, containing 50 g/L of the “technical” (i.e. unformulated) active ingredient was prepared by dissolving the active ingredient in a mixture of organic solvents and emulsifier, details of which are provided in the table. This IF50 was then mixed with a small, variable amount of acetone to aid dissolution, before addition of an aqueous solution of 1% v/v ammonium sulphate+1% v/v Empicol ESC70 (Sodium lauryl ether sulphate) adjuvant, as the aqueous diluent, to form an aqueous spray solution which contains a predetermined concentration of the active ingredient (which varies depending on the application rate of the active ingredient to the plants).
(§2) Composition of the mixture of organic solvents and emulsifier used as a base for the instant formulation.
(§3) This aqueous spray solution was then sprayed onto the plants, after about 12 days' cultivation. The plants were grown from seeds sown in standard soil, placed in a glasshouse under controlled conditions (at 24/18° C. or 20/16° C., day/night; 16 hours light; 65% humidity). After spray application the plants were then grown on in a glasshouse under the same conditions and watered twice daily. After 15 days the test was evaluated (100=total damage to plant; 0=no damage to plant).
(§4) Ipomoea hederacea (IPOHE), Euphorbia heterophylla (EPHHL), Chenopodium album (CHEAL), 20 Amaranthus retroflexus (AMARE), Lolium perenne (LOLPE), Digitaria sanguinalis (DIGSA), Eleusine indica (ELEIN), Echinochloa crus-galli (ECHCG), Setaria faberi (SETFA)

The subject of experiment [2] is Chenopodium album (CHEAL). Briefly: Post-emergence efficacy, Method B. The following applies: 360 h, read-out: Control of weed species after post-emergence application, CHEAL (100=total damage to plant; 0=no damage to plant). On the procedure:
as §1, §2, §3, §4

The test system of experiment [3] is Digitaria sanguinalis (DIGSA). Kind of experiment: Post-emergence efficacy, Method B. Conditions: 360 h, evaluated after 15 days, read-out: Control of weed species after post-emergence application, DIGSA (100=total damage to plant; 0=no damage to plant); for pest or weed control at 1000 g/ha: Application Rate 1000 g/Ha; for pest or weed control at 500 g/ha: Application Rate 500 g/Ha. How it is done:
as §1, §2, §3, §4

In experiment [4] the test system is Echinochloa crus-galli (ECHCG). Briefly: Post-emergence efficacy, Method B. The following applies: 360 h, read-out: Control of weed species after post-emergence application, ECHCG (100=total damage to plant; 0=no damage to plant). On the procedure:
as §1, §2, §3, §4

In another experiment the test system is Eleusine indica (ELEIN). Briefly: Post-emergence efficacy, Method B. The following applies: 360 h, read-out: Control of weed species after post-emergence application, ELEIN (100=total damage to plant; 0=no damage to plant). How it is done:
as §1, §2, §3, §4

For experiment [5], the system named is Euphorbia heterophylla (EPHHL). Kind of experiment: Post-emergence efficacy, Method B. The following applies: 360 h, evaluated after 15 days, read-out: Control of weed species after post-emergence application, EPHHL (100=total damage to plant; 0=no damage to plant); for pest or weed control at 1000 g/ha: Application Rate 1000 g/Ha; for pest or weed control at 500 g/ha: Application Rate 500 g/Ha. How it is done: as §1, §2, §3, §4

Experiment [6] deals with Ipomoea hederacea (IPOHE). Briefly: Post-emergence efficacy, Method B. The following applies: 360 h, read-out: Control of weed species after post-emergence application, IPOHE (100=total damage to plant; 0=no damage to plant). On the procedure:
as §1, §2, §3, §4

The next experiment concerns Lolium perenne (LOLPE). Kind of experiment: Post-emergence efficacy, Method B. The following applies: 360 h, read-out: Control of weed species after post-emergence application, LOLPE (100=total damage to plant; 0=no damage to plant). How it is done: as §1, §2, §3, §4
In experiment [7] the test system is Setaria faberi (SETFA). Briefly: Post-emergence efficacy, Method B. Conditions: 360 h, evaluated after 15 days, read-out: Control of weed species after post-emergence application, SETFA (100=total damage to plant; 0=no damage to plant); for pest or weed control at 1000 g/ha: Application Rate 1000 g/Ha; for pest or weed control at 500 g/ha: Application Rate 500 g/Ha. On the procedure: as §1, §2, §3, §4

Experiment [8] relates to Digitaria sanguinalis (DIGSA). Briefly: Post-emergence efficacy, Method A. The following applies: Application rate 500 g/Ha; evaluated after 13 days; 100=total damage to plant, 0=no damage. The procedure, abridged: (§5)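 After 14 days' growth in pots, plants were treated by spray with compound diluted from a 50 g/l IF50 stock concentrate into 0.25% or 1% Empicol ESC70 + 1% ammonium sulphate. Thirteen days later, injury was scored 0–100.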

Experiment [9] deals with Echinochloa crus-galli (ECHCG). Kind of experiment: Post-emergence efficacy, Method A. The following applies: Application rate 500 g/Ha; evaluated after 13 days; 100=total damage to plant, 0=no damage. The gist of the method: as §5
The subject of experiment [10] is Setaria faberi (SETFA). Kind of experiment: Post-emergence efficacy, Method A. Conditions: Application rate 500 g/Ha; evaluated after 13 days; 100=total damage to plant, 0=no damage. The gist of the method:
as §5

Where [11] appears, read: Method B, Application Rate 500 g/Ha, evaluated after 15 days.
Setting [12] is: Method B, Application Rate 1000 g/Ha, evaluated after 15 days.

Turning to `O=C(O)CC[n+]1ccc(-c2cccnn2)cn1` [Compound A138, 3-(4-pyridazin-3-ylpyridazin-1-ium-1-yl)propanoic acid chloride], the pest or weed control at 1000 g/ha (in [1]; in experiment [2]; in [3]; in [4]; in the experiment with Eleusine indica (ELEIN); in [5]) was 100% throughout. Also, the pest or weed control at 1000 g/ha was found to be 40% in [6], 100% with Lolium perenne (LOLPE) and 100% in the experiment on Setaria faberi (SETFA) [7].
As for `O=S(=O)([O-])CC[n+]1ccc(-c2ccncn2)cn1` [Compound A4], the pest or weed control at 500 g/ha in experiment [1] is 100%; in [2] (setting [11]), 80%; in [3], 100%; in experiment [4] (setting [11]), 70%; with Eleusine indica (ELEIN) (setting [11]) it was 80%; in [5], 100%. Also, the pest or weed control at 500 g/ha in experiment [6] (setting [11]) was determined as 100%; in the experiment with Lolium perenne (LOLPE) (setting [11]), 90%; in the experiment on Setaria faberi (SETFA) [7], 40%.
As to `Cl.N[C@@H](CCC[n+]1ccc(-c2ncccn2)cn1)C(=O)O.[Cl-]` [Compound A211, [(1S)-1-carboxy-4-(4-pyrimidin-2-ylpyridazin-1-ium-1-yl)butyl]ammonium Dichloride], in [8], the “Control of weed species after post-emergence application, DIGSA” value was 100. In addition, the “Control of weed species after post-emergence application, ECHCG” value in experiment [9] stood at 100. In addition, the “Control of weed species after post-emergence application, SETFA” value in the experiment on Setaria faberi (SETFA) [10] worked out at 100. Besides, the pest or weed control at 500 g/ha was found to be 100% in [1]; 90% in experiment [2]; 100% in experiment [3]; 100% in experiment [4]; 100% in the experiment with Eleusine indica (ELEIN); 80% in experiment [5]. Moreover, the figures for the pest or weed control at 500 g/ha (in experiment [6]; with Lolium perenne (LOLPE); in the experiment on Setaria faberi (SETFA) [7]) were 100%, 10% and 100%, respectively.
Take `O=C([O-])CCC[n+]1ccc(-c2ncccn2)cn1` [Compound A220]: the pest or weed control at 1000 g/ha is 100% in experiment [1]; 90% in experiment [2] (setting [12]); 100% in experiment [3]; 90% in experiment [4] (setting [12]); 100% in the experiment on Eleusine indica (ELEIN) (setting [12]); 100% in [5]. For the same compound, the pest or weed control at 1000 g/ha worked out at 30% in [6] (setting [12]), 90% in the experiment on Lolium perenne (LOLPE) (setting [12]) and 30% in the experiment with Setaria faberi (SETFA) [7].
Turning to `O=S(=O)([O-])CC[n+]1ccc(-c2cccnn2)cn1` [Compound A213, 2-(4-pyridazin-1-ium-3-ylpyridazin-1-ium-1-yl)ethanesulfonate chloride], the pest or weed control at 1000 g/ha stood at 100% in experiment [1]; 80% in experiment [2]; 100% in experiment [3]; 100% in [4]; 100% in the experiment on Eleusine indica (ELEIN); 100% in experiment [5]. Moreover, the pest or weed control at 1000 g/ha came to 80% in [6], 90% with Lolium perenne (LOLPE) and 100% in the experiment with Setaria faberi (SETFA) [7].
As to `N[C@H](CC[n+]1ccc(-c2ncccn2)cn1)C(=O)O` [Compound A207, [(1R)-1-carboxy-3-(4-pyrimidin-2-ylpyridazin-1-ium-1-yl)propyl]ammonium 2,2,2-trifluoroacetate], the pest or weed control at 1000 g/ha was determined as 100% in [1]; 90% in experiment [2]; 90% in [3]; 100% in [4]; 100% in the experiment on Eleusine indica (ELEIN); 70% in experiment [5]. Besides, the results for the pest or weed control at 1000 g/ha (in experiment [6]; with Lolium perenne (LOLPE); in the experiment with Setaria faberi (SETFA) [7]) were 100%, 20% and 100%, respectively.
For the compound `O=C(O)CC[n+]1ccc(-c2ccncn2)cn1` [Compound A28], the pest or weed control at 1000 g/ha in experiment [1] worked out at 100%; in experiment [2], 90%; in experiment [3] it was 100%; in [4] it was 100%; in the experiment on Eleusine indica (ELEIN), 100%; in experiment [5], 100%. The figures for the pest or weed control at 1000 g/ha (in experiment [6]; with Lolium perenne (LOLPE); in the experiment with Setaria faberi (SETFA) [7]) were 100%, 70% and 40%, respectively.

Source of the values: US11618743B2, “Herbicidal compounds” (SYNGENTA PARTICIPATIONS AG, priority 2017, dated 2023).
